# Measurements reported in US7858637B2, “Administration of TLR7 ligands and prodrugs thereof for treatment of infection by hepatitis C virus” (priority 2003, dated 2010).
# Structures can show the parent of a compound that is named as a salt. Where two headings read alike, the source gives them in different places.
# Experiments:
# [1] = test system: human peripheral blood mononuclear cells (PBMC); assay: PBMC assay of interferon alpha release (masking); format: cell-based; conditions: Homo sapiens, PBMC, read-out: Amount of INFa relative to that induced by isatoribine at 100 μM
# Protocol: A typical experiment would use human peripheral blood mononuclear cells (PBMC) isolated from a healthy donor and placed in replicate cell culture wells; typically, 2×10^6 to 5×10^6 cells are placed in each well. The PBMC are incubated in the absence of test compounds at 37° C. in a humidified atmosphere containing 5% CO2 for 24 hours to allow stabilization to the culture conditions, and then 100 micromolar isatoribine, the TLR7 ligand and a corresponding TLR7 ligand prodrug are added to separate wells containing PBMC from the same donor; untreated controls are included. The concentrations of TLR7 ligand and TLR7 ligand prodrug may be varied to suit the particular experiment, and the PBMC cultures are then incubated at 37° C. in a humidified atmosphere containing 5% CO2 for a period of time ranging from two hours to 48 hours. Samples of cell culture supernate media are taken during the incubation. These are assayed for cytokine production by ELISA. Additionally the amount of TLR7 ligand and TLR7 ligand prodrug remaining at the end of the incubation may be assayed by LC-MS. Cytokine production is calculated relative to production in the isatoribine control, following subtraction of the cytokine production in untreated controls.
# Thus, if the TLR7 ligand generates more interferon alpha (a conveniently measured cytokine) than does the corresponding TLR7 ligand prodrug after a similar duration of exposure and concentration, the TLR7 ligand prodrug may be deemed a “masked” TLR7 ligand prodrug.
# interferon alpha = assay: Interferon alpha plasma concentrations in mice; format: in vivo, mouse
# From the text: Not only can one measure the plasma concentrations of isatoribine arising from oral administration of the said prodrug(s) but also the extensive immunological research conducted in the mouse has provided reagents suitable for measuring the levels of interferon alpha, a cytokine of interest reflecting one of the desired biologic activities of isatoribine.
# [2] = Toxicology studies, GI tolerance in beagle dogs; format: in vivo, beagle dog; conditions: dogs, oral val-isatoribine
# From the text: We compared in the dog the oral toxicology of 21 and 24, and the intravenous toxicology of 21. We observed that the oral toxicology of 24 was much more like intravenous 21 than it was like oral 21.
# human TLR7 = biological target: T1, human TLR7 (Homo sapiens, UniProt Q9NYK1); assay: HEK293-hTLR7 NF-kB luciferase reporter (C23) assay; conditions: read-out: mean fold induction of luciferase activity compared to the no drug control
# T1 sequence (Q9NYK1 27-1049): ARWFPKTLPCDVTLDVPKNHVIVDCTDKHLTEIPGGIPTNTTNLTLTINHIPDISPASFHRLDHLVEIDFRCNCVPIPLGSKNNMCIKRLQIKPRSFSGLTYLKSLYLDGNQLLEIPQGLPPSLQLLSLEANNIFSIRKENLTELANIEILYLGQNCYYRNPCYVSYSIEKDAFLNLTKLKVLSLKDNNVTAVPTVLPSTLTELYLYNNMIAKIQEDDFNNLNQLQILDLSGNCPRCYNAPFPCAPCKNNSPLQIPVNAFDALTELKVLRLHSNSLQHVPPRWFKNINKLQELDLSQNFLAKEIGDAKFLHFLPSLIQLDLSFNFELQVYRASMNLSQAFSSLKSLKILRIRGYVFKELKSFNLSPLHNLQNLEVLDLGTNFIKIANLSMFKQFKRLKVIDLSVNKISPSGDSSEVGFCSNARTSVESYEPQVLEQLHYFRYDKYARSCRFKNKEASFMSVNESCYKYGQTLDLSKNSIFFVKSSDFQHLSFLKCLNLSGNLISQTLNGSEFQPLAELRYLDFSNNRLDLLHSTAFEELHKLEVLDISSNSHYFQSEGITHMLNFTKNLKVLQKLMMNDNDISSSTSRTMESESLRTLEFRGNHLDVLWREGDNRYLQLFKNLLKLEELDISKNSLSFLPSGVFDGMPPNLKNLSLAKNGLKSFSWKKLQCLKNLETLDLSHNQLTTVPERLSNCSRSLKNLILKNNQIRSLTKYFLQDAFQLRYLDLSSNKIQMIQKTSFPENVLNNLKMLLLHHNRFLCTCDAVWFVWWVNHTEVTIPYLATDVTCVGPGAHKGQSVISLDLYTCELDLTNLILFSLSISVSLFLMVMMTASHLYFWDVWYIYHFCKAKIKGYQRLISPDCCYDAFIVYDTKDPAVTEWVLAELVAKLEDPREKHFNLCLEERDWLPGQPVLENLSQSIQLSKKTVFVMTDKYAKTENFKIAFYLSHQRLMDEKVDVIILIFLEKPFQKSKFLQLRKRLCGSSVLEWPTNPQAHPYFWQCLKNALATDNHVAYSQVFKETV
# Protocol: A stable HEK293-hTLR7 cell line was obtained from Invivogen (San Diego, Calif.), transfected with pNiFty2-Luc, an NF-kB inducible luciferase reporter plasmid (Invivogen) and (dual) stable transfectants selected. The resultant dual (hTLR7/pNiFty2-Luc) cell lines were functionally tested by response to loxoribine and isatoribine as measured by fold luciferase induction relative to a no drug control. […] See, e.g., Hemmi H. et al., Nat.
# For a typical C23 assay, cells are seeded at 6×10^4 cells/well in 96 well plates and 4-24 hours later are treated with various concentrations of compound. After 2-48 hours exposure the cell monolayers are lyzed with passive lysis buffer (Promega) and the firefly luciferase assay carried out using the luciferase assay reagent (Promega) as specified by the manufacturer. Relative luciferase activities are expressed as folds of induction compared to the no drug control. A two-fold induction over background is considered a bona fide TLR7 agonist, dependent on this being a statistically significant increase.
# In Table 1, isatoribine, was added to C23 cells for forty-eight hours, and the cells were then harvested and assayed for luciferase activity. Each time-point was assayed in triplicate.
# Each time-point was assayed in triplicate.
# HCV replicon = assay: HCV replicon-based viral bioassay with supernatants of compound-treated PBMC; format: cell-based, hepatitis C virus
# Protocol: A quantitative assay was developed which is based on measuring the activity of the luciferase reporter gene that was integrated into an HCV replicon. By using this system, interferons from TLR7 agonist-treated PBMCs were measured and their inhibitory activity was assessed using the luciferase reporter replicon.
# Human PBMCs isolated from a healthy donor were placed in replicate cell culture wells (5×10^6 cells per well). The PBMCs are incubated in the absence of test compounds at 37° C. in a humidified atmosphere containing 5% CO2 for 24 hours to allow stabilization to the culture conditions, and then the TLR7 ligand or a drug free control is added to replicate wells containing PBMCs from the same donor. The concentrations of TLR7 ligand may be varied to suit the particular experiment, and the PBMC cultures are then incubated at 37° C. in a humidified atmosphere containing 5% CO2 for eight hours. Samples of cell culture supernatant are taken at the eight hour time point (or twenty four hour time point in case of Loxoribine and its prodrugs) from TLR7 ligand treated and control wells and are assayed for interferon-alpha production by ELISA. Supernatants from compound-treated cells and a no-drug control were diluted at 1:10, 1:100, and 1:1000 in RPMI media and applied to a 96-well plate of Huh7 hepatocyte cells containing the luciferase reporter replicon. Cells were incubated for 48 hours at 37° C. in a tissue culture incubator.
# After the incubation period, the 96-well plates are washed 2× with PBS and are lysed with passive lysis buffer (Promega). Plates are shaken at room temperature for 20 minutes and standard luciferase assay reagent (Promega) is added to each well by injection and the plate is read on an Lmax luminometer (Molecular Devices).
# A supernatant collected from PBMC cells non-exposed to the compound and diluted as specified in the first column was used as a control (“Blank supernatant”). The PBMC cells were isolated from a single blood donor as specified.
# HCV = conditions: treatment of HCV, Pockros et al., Gastroenterology 2003; cited from earlier work
# [3] = isatoribine equivalent applied dose 8.1 mg/kg
# [4] = isatoribine equivalent applied dose 16 mg/kg
# [5] = isatoribine equivalent applied dose 32 mg/kg
# [6] = isatoribine equivalent applied dose 64 mg/kg
smiles,measurement,setting,value
CC(=O)OC[C@H]1O[C@@H](n2c(=O)sc3c(=O)[nH]c(N)nc32)[C@H](OC(C)=O)[C@@H]1OC(C)=O,melting point,,198 to 199 °C
Nc1ncc2sc(=O)n([C@@H]3O[C@H](CO)[C@@H](O)[C@H]3O)c2n1,melting point,,220 °C (dec.)
"CC(C)[C@H](N)C(=O)OC[C@H]1O[C@@H](n2c(=O)sc3c(=O)[nH]c(N)nc32)[C@H](O)[C@@H]1O (as salt: hydrochloride) [Compound 24, 5-Amino-3-(5′-O-L-valinyl-β-D-ribofuranosyl)thiazolo[4,5-d]pyrimidine-2,7-dione Dihydrochloride]",melting point,,166 to 168 °C (dec.)
"CC(C)[C@H](N)C(=O)OC[C@H]1O[C@@H](n2c(=O)sc3c(O)nc(N)nc32)[C@H](O)[C@@H]1O [Compound 24, 5-Amino-3-(5′-O-L-valinyl-β-D-ribofuranosyl)thiazolo[4,5-d]pyrimidine-2,7-dione Dihydrochloride]",Emax at 100 µM,"[1]; Table 9, 100 μM, 8 hours exposure, same blood donor",1%
same,increase of the magnitude of both the average and peak interferon response over isatoribine,"interferon alpha; mice, oral dosing",100%
same,levels of isatoribine and interferon relative to those after intravenous isatoribine,"interferon alpha; mice, oral, 50 mg/kg isatoribine molar equivalent vs intravenous isatoribine 25 mg/kg, FIG. 1",approximately 50%
same,mice with detectable interferon in their plasma,"interferon alpha; oral dosing, data of Tables 15, 16 and 17",10 of the 30
same,Emesis or loose stool,[2]; [3],Neg.
same,GI lesions or irritation,[2]; [3],Neg.
same,Emesis or loose stool,[2]; [4],Neg.
same,GI lesions or irritation,[2]; [4],Neg.
same,Emesis or loose stool,[2]; [5],Neg.
same,GI lesions or irritation,[2]; [5],Neg.
same,Emesis or loose stool,[2]; [6],Neg.
same,GI lesions or irritation,[2]; [6],Neg.
same,GI lesions or irritation,[2]; isatoribine equivalent applied dose 130 mg/kg,Neg.
same,GI lesions or irritation,[2]; isatoribine equivalent applied dose 260 mg/kg,Neg.
same,GI lesions or irritation,[2]; isatoribine equivalent applied dose 390 mg/kg,Neg.
"COCCOc1nc(N)c2nc(O)n(Cc3ccccc3)c2n1 [Compound 29, 6-Amino-9-benzyl-2-(2-methoxy-ethoxy)-9H-purin-8-ol]",fold induction at 1 µM,human TLR7,20.8
same,fold induction at 3.2 µM,human TLR7,37.3
same,fold induction at 10 µM,human TLR7,47.5
same,fold induction at 32 µM,human TLR7,48.4
same,HCV replicon inhibition,"HCV replicon; Table 8 No. 1, PBMC exposed 8 hours to 0.1 μM, a TFA salt, donor FL76418, supernatant dilution 1:10",100%
same,HCV replicon inhibition,"HCV replicon; Table 8 No. 1, PBMC exposed 8 hours to 0.1 μM, a TFA salt, donor FL76418, supernatant dilution 1:100",73%
same,HCV replicon inhibition,"HCV replicon; Table 8 No. 1, PBMC exposed 8 hours to 0.1 μM, a TFA salt, donor FL76418, supernatant dilution 1:1000",0%
same,HCV replicon inhibition,"HCV replicon; Table 8 No. 2, PBMC exposed 8 hours to 0.1 μM, a TFA salt, donor FL76418, supernatant dilution 1:10",100%
same,HCV replicon inhibition,"HCV replicon; Table 8 No. 2, PBMC exposed 8 hours to 0.1 μM, a TFA salt, donor FL76418, supernatant dilution 1:100",64%
same,HCV replicon inhibition,"HCV replicon; Table 8 No. 2, PBMC exposed 8 hours to 0.1 μM, a TFA salt, donor FL76418, supernatant dilution 1:1000",9%
same,Emax at 0.1 µM,"[1]; Table 14, 0.1 μM, 24 hours exposure",128%
"CCOCc1nc2c(N)nc3ccccc3c2n1CC(C)(C)O [Compound 38, 1-(4-amino-2-ethoxymethyl-imidazo[4,5-c]quinolin-1-yl)-2-methyl-propan-2-ol]",HCV replicon inhibition,"HCV replicon; Table 6 No. 1, PBMC exposed 8 hours to 10 μM, donor FL75287, supernatant dilution 1:10",100%
same,HCV replicon inhibition,"HCV replicon; Table 6 No. 1, PBMC exposed 8 hours to 10 μM, donor FL75287, supernatant dilution 1:100",98%
same,HCV replicon inhibition,"HCV replicon; Table 6 No. 1, PBMC exposed 8 hours to 10 μM, donor FL75287, supernatant dilution 1:1000",21%
same,HCV replicon inhibition,"HCV replicon; Table 6 No. 2, PBMC exposed 8 hours to 10 μM, donor FL75287, supernatant dilution 1:10",100%
same,HCV replicon inhibition,"HCV replicon; Table 6 No. 2, PBMC exposed 8 hours to 10 μM, donor FL75287, supernatant dilution 1:100",88%
same,HCV replicon inhibition,"HCV replicon; Table 6 No. 2, PBMC exposed 8 hours to 10 μM, donor FL75287, supernatant dilution 1:1000",6%
same,Emax at 100 µM,[1]; 24 h,9%
same,anti-HCV effect at tolerated oral doses,HCV,failed to show anti-HCV effect
"CC(=O)O[C@@H]1[C@H](OC(C)=O)[C@@H](CO)O[C@H]1n1c(=O)sc2cnc(N)nc21 [Compound 93, 5-Amino-3-(2′,3′-di-O-acetyl-β-D-ribofuranosyl)-3H-thiazolo[4,5-d]pyrimidin-2-one]",Emax at 100 µM,"[1]; Table 9, 100 μM, 24 hours exposure, same blood donor",0%
same,melting point,,109 to 111 °C
